Results on six molecules are retold here after US11319293B2, “Polymorps of cariprazine hydrochloride and preparation method thereof and use of same” (SHANGHAI BEGREAT PHARMATECH, priority 2018, dated 2022).

The test system of one data set is bipolar disorder. The conditions noted are these: cited from earlier work.
Another data set relates to schizophrenia. The conditions noted are these: cited from earlier work.
Data set [1] in a line: Powder flowability test (angle of repose). The data set is classed as physicochemical. The settings on record: for angle of repose: average of three determinations, α=arctg(H/R), hydrochloride; for flowability compared with forms I and II (in words): conclusion from angle of repose. The text has this: Angle of repose is adopted widely to evaluate the powder flowability. When the angle of repose of the powder is less than or equal to 30 degrees, it means the flowability of this powder is good. While in case, 40 degrees or less of the powder angle of repose, this powder can satisfy the demand for fluidity in the production process. When the angle of repose of the powder is more than 40 degrees, it means the very poor flowability of the drug powder which may cause the troubles above mentioned during the drug manufacturing process.
Powder flowability test: A petri dish with a diameter of 7 cm in the bottom plate is used. Two glass funnels are staggered on top of each other and fixed on an iron stand. The distance between the lower funnel outlet and the bottom plate is between 3.5-6.0 cm. Take some cariprazine hydrochlorides in different crystal forms, and slowly add them from the upper funnel, so that the sample gradually accumulates on the chassis through the buffer of the two funnels to form a cone until the highest cone is obtained. Measure the height H of the cone. Determine three times for each sample, take the average, and calculate the angle of repose as follows: α=arctg(H/R) Among them, α is the angle of repose and R is the radius of the chassis.
When the angle of repose of the powder is less than or equal to 30 degrees, it means flowability of powder is good. The flowability requirement in the manufactured process can be satisfied when it is less than or equal to 40 degrees. If the angle of repose of powder is more than 40 degrees, it means flowability is poor.

The nature of data set [2]: Dissolution and re-precipitation time in pH 6.5 buffer (simulated fasting small intestine). The data set is classed as physicochemical. The settings on record: for Dissolving time / Precipitate time: 5 mg crystal form in 80 mL pH 6.5 buffer solution; for Dissolving time: shaken slightly; for Precipitate time: time of re-precipitation, hydrochloride. Here is the method: In Example 1, precipitation time for Form A and Forms I and II were compared under pH of simulated intestinal fluid. Take 5 mg of crystal forms A, I and II, and put them in 100-ml glass sample bottles, add 80 mL of pH 6.5 buffer solution (pH value of simulating fasting small intestine), and shake them slightly to observe precipitate. Dissolution status and time of re-precipitation were recorded.

The structures appear in SMILES notation. Structures can show the parent of a compound that is named as a salt.

Consider `CN(C)C(=O)N[C@H]1CC[C@H](CCN2CCN(c3cccc(Cl)c3Cl)CC2)CC1` [Compound 1, hydrochloride], for which, in the data set on bipolar disorder (6-week clinical trial, 1037 subjects), the “symptoms of bipolar disorder compared with placebo group” value was “significantly reduce the symptoms of bipolar disorder”. Further, the “most common adverse effects in the treatment of bipolar disorder” value in the data set with bipolar disorder (clinical trials) was “extrapyramidal symptoms, manifested by inability to sit still, indigestion, vomiting, lethargy, and restlessness”. Besides, the “most common adverse effects in the treatment of schizophrenia” value in the data set on schizophrenia (clinical trials) is “extrapyramidal symptoms, including tremor, speech insufficiency, and dystonia”. The “symptoms of schizophrenia compared to placebo group” value in the data set on schizophrenia (six-week clinical trial, 1,754 participants, according to the FDA) was “significantly reduces the symptoms of schizophrenia”.

With `CN(C)C(=O)N[C@H]1CC[C@H](CCN2CCN(c3cccc(Cl)c3Cl)CC2)CC1` [Form C, trans-N-{4-[2-[4-(2,3-dichlorophenyl)-piperazine-1-yl]-ethyl]-cyclohexyl}-N′,N′-dimethylurea hydrochloride], in data set [1], the angle of repose was 31°; the “flowability compared with forms I and II (in words)” value is listed as “significantly improve the flowability”.

As to `CN(C)C(=O)N[C@H]1CC[C@H](CCN2CCN(c3cccc(Cl)c3Cl)CC2)CC1` [Form I, cariprazine hydrochloride], in data set [2], the Dissolving time entry is given as “immediately” and the Precipitate time is 1 min. The angle of repose in data set [1] came to 40°.

As for `CN(C)C(=O)N[C@H]1CC[C@H](CCN2CCN(c3cccc(Cl)c3Cl)CC2)CC1` [Form A, trans-N-{4-[2-[4-(2,3-dichlorophenyl)-piperazine-1-yl]-ethyl]-cyclohexyl}-N′,N′-dimethylurea hydrochloride], in data set [2], the Dissolving time entry is “immediately” and the Precipitate time is 10 min. The “maintenance of dissolved state under near-neutral conditions compared to Forms I and II (in words)” value in data set [2] (pH 6.5 buffer) was “significantly prolonged maintenance”. In data set [1], the angle of repose is 35°; the “flowability compared with forms I and II (in words)” value is listed as “significantly improve the flowability”.

In the case of `CN(C)C(=O)N[C@H]1CC[C@H](CCN2CCN(c3cccc(Cl)c3Cl)CC2)CC1` [Form II, cariprazine hydrochloride], in data set [2], the Dissolving time entry is on record as “immediately” and the Precipitate time is on record as 1 min. The molecule also registered an angle of repose in data set [1] of 40°.

Consider `CN(C)C(=O)N[C@H]1CC[C@H](CCN2CCN(c3cccc(Cl)c3Cl)CC2)CC1` [Form B, trans-N-{4-[2-[4-(2,3-dichlorophenyl)-piperazine-1-yl]-ethyl]-cyclohexyl}-N′,N′-dimethylurea hydrochloride], for which, in data set [1], the angle of repose worked out at 28°; the “flowability compared with forms I and II (in words)” value is “significantly improve the flowability”.
